The test system of the assay is moderate to severe idiopathic RLS subjects. As to the kind of experiment: Clinical Global Impressions Scale (CGI): severity, change and treatment effect. It counts as in vivo, human. As to the method: The study multi-centre, randomized, double-blind, parallel-groups, placebo-controlled study with 2 treatment arms, oral HPPD inhibitor (2-(2-nitro-4-trifluoromethylbenzoyl)-1,3-cyclohexanedione) and placebo. Subjects were randomized to either treatment with an HPPD inhibitor or placebo in a 2:1 ratio. The subjects were dosed with 4 mg on day 1, and 2 mg/day on days 2-14. The total duration of treatment with study drug for each subject was 14 consecutive days ending at the day of the final sleep lab assessment (Day 14), with a follow-up examination 29 days after Baseline.
The objective of this exploratory study was to show proof-of-concept of therapy with an exemplary HPPD inhibitor in moderate to severe idiopathic RLS subjects.
Efficacy parameters were changes between Baseline and end of treatment in objective measures of Periodic Limb Movements (PLM) and sleep efficiency and in investigator evaluations of severity of RLS symptoms as well as in subject's report on severity of RLS symptoms, sleep disturbances and depressive feelings. Parameters measured included: • Periodic Limb Movement (PLM) Index, defined as the number of PLM events occurring during time-in-bed (PLMI/h TIB) • Periodic Limb Movements during Sleep Index, defined as the number of PLMs per hour of total sleep time (PLMSI/h TST) • PLM arousal index, defined as the number of PLM with arousals per hour of total sleep time (PLMSAI/h TST) • Periodic Limb Movements during wakefulness index, defined as the number of PLMs per hour occurring during wakefulness within time-in-bed (PLMWI/h TIB) • Sleep Efficiency (SE) expressed as the percentage total sleep time (TST) of total time in bed (TIB) • Total Sleep Time (TST) • Total number of arousals per TST • Sleep latency • Restless Legs Scale—6 items (RLS-6) (Kohnen et al, 2004) • IRLS total score change from start of treatment to end • Time to requiring rescue medication (defined as time to dropout due to the need of rescue medication for intolerable RLS symptoms) • Physicians' Global Impression, rated by the Clinical Global Impressions Scale (CGI): severity, change and treatment effect • CGI responders defined as the proportion of subjects who improved “much” or “very much” on CGI item “change”. • Patients' Global Impression (PGI) scale Item 1 (efficacy) • Medical Outcomes Study (MOS) Sleep Scale • Beck Depression Inventory (BDI) • In addition, a patient diary was to be completed between days 8 and 15 • HPPD inhibitor plasma concentrations at Baseline, end of treatment and follow-up • Tyrosine plasma concentration at Baseline, end of treatment and follow-up.

As to `O=C1CCCC(=O)C1C(=O)c1ccc(C(F)(F)F)cc1[N+](=O)[O-]` [HPPD Inhibitor, 2-(2-nitro-4-trifluoromethylbenzoyl)-1,3-cyclohexanedione], the “CGI severity item, improvement vs placebo” value (EoT) is “larger improvement”. Besides, the “CGI severity: subjects not at all or only borderline ill, percentage” value (EoT, M-ITT) is 21.4%. In addition, under “EoT, M-ITT, none on placebo”, the “CGI severity: subjects not at all or only borderline ill, number” value was found to be 3 subjects. Also, the “CGI severity: subjects with moderate to severe illness, number” value (EoT, M-ITT, placebo 5) was 7 subjects. Further, under “EoT, M-ITT, placebo 71.4%”, the “CGI severity: subjects with moderate to severe illness, percentage” value stood at 50.0%. For the setting “M-ITT, placebo 2”, the “CGI change of condition: subjects very much or much improved (responder analysis), number” value is recorded as 7 subjects. For the setting “M-ITT, placebo 28.6%”, the “CGI change of condition: subjects very much or much improved (responder analysis), percentage” value was determined as 50.0%. For the same compound, the “CGI treatment effect rated as very good or moderate, number of subjects” value (placebo 3) is recorded as 8 subjects. Where the note is “placebo 42.9%”, the “CGI treatment effect rated as very good or moderate, percentage of subjects” value amounted to 57.1%.

The record behind these values is US20100160295A1, “TREATMENT OF RESTLESS LEG SYNDROME AND SLEEP DISORDERS” (SYNOSIA THERAPEUTICS, priority 2008, published 2010).
